Paper PMC4026384, “Antibacterial Activity of THAM Trisphenylguanide against Methicillin-Resistant Staphylococcus aureus” (PLoS ONE, 2014)
≈ marks a conversion by molar mass, not a printed value.

Legend:
[1] = test system: E. coli K91; assay: Bacterial viability assay; format: cell-based, Escherichia coli; conditions: one hour in PBS, CFU, ± SEM
Description: (§1) Supplementary file pone.0097742.s003.doc: Table S1 Bacterial viability assays. Bacteria were grown at 37°C to mid-log phase (OD600 ∼0.4). The bacteria were diluted to approximately 10^4 to 10^5 colony forming units (CFU) per milliliter and added to a solution of phosphate buffered saline (PBS, 16 mM phosphate, 0.14 M NaCl, pH 7.2) containing the compound at varied concentrations. Samples were incubated at 37°C for one hour and then plated on Luria Bertani (LB) agar at appropriate dilutions in PBS. The plates were incubated overnight at 37°C and colonies enumerated the following day. IC50s were calculated from graphs of CFU as a function of compound concentration. Chlorhexidine was used as a positive control. […] (DOC) Click here for additional data file.
(§2) Bacterial viability assays. Bacteria were grown at 37°C to mid-log phase (OD600 ~0.4). The bacteria were diluted to approximately 10^4 to 10^5 colony forming units (CFU) per milliliter and added to a solution of phosphate buffered saline (PBS, 16 mM phosphate, 0.14 M NaCl, pH 7.2) containing the compound at varied concentrations. Samples were incubated at 37°C for one hour and then plated on Luria Bertani (LB) agar at appropriate dilutions in PBS. The plates were incubated overnight at 37°C and colonies enumerated the following day. IC50s were calculated from graphs of CFU as a function of compound concentration. Chlorhexidine was used as a positive control.

[2] = test system: S. aureus RN4220; assay: Bacterial viability assay; format: cell-based, Staphylococcus aureus; conditions: one hour in PBS, CFU, ± SEM
Description: (§3) Supplementary file pone.0097742.s003.doc: Table S1 Bacterial viability assays. Bacteria were grown at 37°C to mid-log phase (OD600 ∼0.4). The bacteria were diluted to approximately 10^4 to 10^5 colony forming units (CFU) per milliliter and added to a solution of phosphate buffered saline (PBS, 16 mM phosphate, 0.14 M NaCl, pH 7.2) containing the compound at varied concentrations. Samples were incubated at 37°C for one hour and then plated on Luria Bertani (LB) agar at appropriate dilutions in PBS. The plates were incubated overnight at 37°C and colonies enumerated the following day. IC50s were calculated from graphs of CFU as a function of compound concentration. Chlorhexidine was used as a positive control. Included are those guanide (G), biguanide (BG), phenylguanide (ΦG) compounds that had some antibacterial activity in an initial screen at 30 and 100 µM, as well as their and parent amines. Compounds synthesized from 1,4-butanediamine, 1,6-hexanediamine, trisethylaminomelamine, trisbutylaminomelamine, and the dendrimer PAMAM (G0) were not active against E. coli, P aeruginosa, or S. aureus so they were not tested against the remaining bacteria (data not shown). (DOC) Click here for additional data file.
as §3, with “Bacterial” for “Supplementary file pone.0097742.s003.doc: Table S1 Bacterial”, “~0.4).” for “∼0.4).”, “μM,” for “µM,”, “shown).” for “shown). (DOC) Click here for additional data file.”

[3] = test system: MRSA strain LAC, USA300; assay: Minimum inhibitory concentration (microdilution); format: cell-based, Staphylococcus aureus; conditions: MRSA USA300; LB media; median of at least 3 determinations
Description: (§4) Minimum inhibitory concentration (MIC) values were determined for those compounds showing the most antibacterial activity in the bacterial viability assays (see Supplemental Materials) against each of the strains of bacteria using a microdilution method in 96 well plates with LB media according to guidelines published by the British Society for Antimicrobial Chemotherapy. Minimum bactericidal concentrations (MBC) were determined by plating 10 µL and 100 µL from each well showing no signs of growth after overnight incubation of the MIC plates and determining the minimum concentration showing a 3-log reduction of viable bacteria. MIC and MBC were also determined in cation-adjusted Mueller-Hinton broth (Hardy Diagnostics, Santa Maria, CA) for some compounds and strains.

[4] = test system: A. baumannii ATCC 19606; assay: Bacterial viability assay; format: cell-based, Acinetobacter baumannii; conditions: one hour in PBS, CFU, ± SEM
Description: as §1, §2

[5] = test system: A. baumannii ATCC BAA1605; assay: Bacterial viability assay; format: cell-based, Acinetobacter baumannii; conditions: one hour in PBS, CFU, ± SEM
Description: as §1, §2

[6] = test system: Staphylococcus aureus RN4220; assay: Minimum inhibitory concentration (microdilution); format: cell-based; conditions: S. aureus RN4220; LB media; median of at least 3 determinations
Description: as §4

[7] = test system: Escherichia coli (strain K91); assay: Minimum inhibitory concentration (microdilution); format: cell-based; conditions: E. coli K91; LB media; median of at least 3 determinations
Description: as §4

[8] = test system: Enterococcus faecalis MSU#10; assay: Minimum inhibitory concentration (microdilution); format: cell-based; conditions: E. faecalis MSU#10; LB media; median of at least 3 determinations
Description: as §4

[9] = test system: Acinetobacter baumannii ATCC 19606; assay: Minimum inhibitory concentration (microdilution); format: cell-based; conditions: A. baumannii ATCC 19606; LB media; median of at least 3 determinations
Description: as §4

[10] = test system: Pseudomonas aeruginosa (strain PA01); assay: Minimum inhibitory concentration (microdilution); format: cell-based; conditions: P. aeruginosa PA01; LB media; median of at least 3 determinations
Description: as §4

[11] = test system: Enterococcus faecalis ATCC V583; assay: Minimum inhibitory concentration (microdilution); format: cell-based; conditions: E. faecalis V583; LB media; median of at least 3 determinations
Description: as §4

[12] = test system: MRSA USA300; assay: Bacterial viability assay; format: cell-based, Staphylococcus aureus; conditions: one hour in PBS, CFU, ± SEM
Description: as §1, §2

[13] = test system: HaCaT human keratinocytes; assay: Cell toxicity assay (MTS); format: cell-based; conditions: for CC50: MTS assay, concentration which killed 50% of the cells
Description: The HaCaT cell line was grown in Epilife medium (MEPI500Ca) with human keratinocyte growth supplement (Invitrogen, San Diego, CA). Both types of cells were harvested using Tryspin/EDTA and diluted to 1×10^5 cells per well in a 96-well plate. Ten concentrations covering five orders of magnitude were tested with six replicates per concentration. […] MTS/PMS solution (Promega, Madison, WI) was added to the wells and absorbance was measured at 490 nm two to four hours later. Data was analyzed using GraphPad Prism version 5.0 (GraphPad Software, La Jolla, CA) using a variable slope inhibition dose response curve.

[14] = test system: E. faecalis V583; assay: Bacterial viability assay; format: cell-based, Enterococcus faecalis; conditions: one hour in PBS, CFU, ± SEM
Description: as §1, §2

[15] = test system: E. faecalis MSU#10; assay: Bacterial viability assay; format: cell-based, Enterococcus faecalis; conditions: E. faecalis MSU#10; one hour in PBS, CFU; ± SEM; read-out: IC50
Description: as §1, §2

[16] = test system: P. aeruginosa PA01; assay: Bacterial viability assay; format: cell-based, Pseudomonas aeruginosa; conditions: one hour in PBS, CFU, ± SEM
Description: as §1, §2

Compound `N=C(N)NCCCCCCCCNc1nc(NCCCCCCCCNC(=N)N)nc(NCCCCCCCCNC(=N)N)n1` [TOAM-3G] has an IC50 [1] of 680 ± 40 nM, an IC50 [2] of 4700 ± 100 nM and an MIC [3] of 1 mg/L (≈ 1.58 µM). For the same compound, the IC50 [4] was 2600 ± 1100 nM, the IC50 [5] was 920 ± 100 nM and the MIC [6] was 2 mg/L (≈ 3.15 µM). It also gave an MIC [7] of 8 mg/L (≈ 12.6 µM), an MIC [8] of 16 mg/L (≈ 25.2 µM) and an MIC [9] greater than 64 mg/L. It also gave an MIC [10] of 16 mg/L (≈ 25.2 µM), an MIC [11] greater than 64 mg/L and an IC50 [12] of 1500 ± 600 nM. For the same compound, the “Relative to chlorhexidine (factor by which cytotoxicity was reduced)” value [13] was 1.9, the CC50 [13] was 3.6 mg/L (≈ 5.68 µM) and the IC50 [14] was 23 ± 14 µM. For the same compound, the IC50 [15] was 5 ± 1.9 µM and the IC50 [16] was 850 ± 190 nM.

In the case of `N=C(NCCCCCCCCNc1nc(NCCCCCCCCNC(=N)Nc2ccccc2)nc(NCCCCCCCCNC(=N)Nc2ccccc2)n1)Nc1ccccc1` [TOAM-3ΦG], the IC50 [1] is reported as 330 ± 110 nM, the IC50 [2] is reported as 540 ± 90 nM and the MIC [3] is reported as 2 mg/L (≈ 2.32 µM). For the same compound, the IC50 [4] was 450 ± 230 nM, the IC50 [5] was 1700 nM and the MIC [6] was 2 mg/L (≈ 2.32 µM). For the same compound, the MIC [7] was 2 mg/L (≈ 2.32 µM), the MIC [8] was 2 mg/L (≈ 2.32 µM) and the MIC [9] was greater than 64 mg/L. It also gave an MIC [10] greater than 64 mg/L, an MIC [11] of 4 mg/L (≈ 4.64 µM) and an IC50 [12] of 240 ± 30 nM. For the same compound, the “Relative to chlorhexidine (factor by which cytotoxicity was reduced)” value [13] was 1.3, the CC50 [13] was 2.4 mg/L (≈ 2.78 µM) and the IC50 [14] was 1.7 ± 0.4 µM. The IC50 [15] was 1.2 ± 0.1 µM and the IC50 [16] was 1000 ± 300 nM.
